Reference: patent US20060264460A1 (Wyeth, priority 2005, published 2006)

target: T1, human Cot/Tpl2 kinase (Homo sapiens, UniProt P41279); test: Tpl2/Cot kinase assay: GST-MEK1 phosphorylation detected by ELISA (DELFIA Eu); assay type: biochemical; conditions: Tpl2/Cot kinase, GST-MEK1 substrate, 50 uM ATP, 1 h at 30° C.; Table 2
T1 construct: human Cot/Tpl2 kinase construct encoding residues 30-398; 6His (N); made in house; host or cells: Sf9 insect cells, baculovirus system (BD Biosciences)
Procedure, shortened: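 His-tagged human Tpl2 from Sf9 cells, Ni-affinity and size-exclusion purified (monomer). 0.4 nM Tpl2 with 35 nM GST-MEK1, 50 uM ATP, MOPS pH 7.2, 1% DMSO, 1 h at 30° C; EDTA stop. MEK1 Ser217/221 phosphorylation detected by anti-phospho-MEK1 and Eu-labelled secondary ELISA; IC50 fitted.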

T1 sequence (P41279 30-398): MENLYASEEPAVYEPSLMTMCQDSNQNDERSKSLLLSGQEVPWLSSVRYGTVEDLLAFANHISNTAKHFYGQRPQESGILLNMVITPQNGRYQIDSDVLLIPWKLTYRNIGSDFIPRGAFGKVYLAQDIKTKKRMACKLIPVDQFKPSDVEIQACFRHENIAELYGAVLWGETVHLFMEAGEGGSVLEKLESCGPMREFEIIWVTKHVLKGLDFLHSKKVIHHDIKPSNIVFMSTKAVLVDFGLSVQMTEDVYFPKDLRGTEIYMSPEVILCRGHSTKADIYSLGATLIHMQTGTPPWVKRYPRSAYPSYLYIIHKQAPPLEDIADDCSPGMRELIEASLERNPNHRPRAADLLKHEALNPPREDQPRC

| Compound | IC50 [nM] |
| --- | --- |
| N#Cc1cnc2c(Cl)cc(NCc3cn(CCC4CCN(C5CCCC5)CC4)nn3)cc2c1Nc1ccc(F)c(Cl)c1 [Example 938] | 200 |
| N#Cc1cnc2c(Cl)cc(NC[C@H]3C[C@H](OCc4cccnc4)CO3)cc2c1Nc1ccc(F)c(Cl)c1 [Example 939] | > 3000 |
| N#Cc1cnc2c(Cl)cc(OCc3cn(C4CCNCC4)nn3)cc2c1Nc1ccc(F)c(Cl)c1 [Example 940] | 150 |
| CC(C)(C)OC(=O)N1CCC(n2cc(COc3cc(Cl)c4ncc(C#N)c(Nc5ccc(F)c(Cl)c5)c4c3)nn2)CC1 [Example 941] | 520 |
| CC(C)N1CCC[C@H]1CCn1cc(CNc2cc(Br)c3ncc(C#N)c(Nc4ccc(F)c(Cl)c4)c3c2)nn1 [Example 942] | 19 |
| CC(C)(C)OC(=O)N1CCC(n2cc(CNc3cc(Cl)c4ncc(C#N)c(NC5CCCC5)c4c3)nn2)CC1 [Example 943] | > 3000 |
| CN1CCCC1CCn1cc(CNc2cc(Cl)c3ncc(C#N)c(NC4CCCC4)c3c2)nn1 (stereo not shown) [Example 944] | > 3000 |
| N#Cc1cnc2c(Cl)cc(NCc3cn(CCN4CCCCCC4)nn3)cc2c1NC1CCCC1 [Example 945] | 630 |
| CN(C)CCn1cc(CNc2cc(Cl)c3ncc(C#N)c(NC4CCCC4)c3c2)nn1 [Example 946] | 590 |
| CN1CCCC1CCn1cc(CNc2cc(Cl)c3ncc(C#N)c(NC4CCCCCC4)c3c2)nn1 (stereo not shown) [Example 947] | 700 |
| CC(C)(C)OC(=O)N1CCC(n2cc(CNc3cc(Cl)c4ncc(C#N)c(NC5CCCCCC5)c4c3)nn2)CC1 [Example 948] | 2310 |
| N#Cc1cnc2c(Cl)cc(NCc3cn(CCN4CCCCCC4)nn3)cc2c1NC1CCCCCC1 [Example 949] | 460 |
| CN(C)CCn1cc(CNc2cc(Cl)c3ncc(C#N)c(NC4CCCCCC4)c3c2)nn1 [Example 950] | 620 |
| CN1CCCC1CCn1cc(CNc2cc(Cl)c3ncc(C#N)c(NC4CCC4)c3c2)nn1 (stereo not shown) [Example 951] | 460 |
| CN1CCCC1CCn1cc(CNc2cc(Cl)c3ncc(C#N)c(NC4CCOCC4)c3c2)nn1 (stereo not shown) [Example 952] | 1130 |
| CC(C)(C)OC(=O)N1CCC(n2cc(CNc3cc(Cl)c4ncc(C#N)c(NC5CCC5)c4c3)nn2)CC1 [Example 953] | 810 |
| N#Cc1cnc2c(Cl)cc(NCc3cn(CCN4CCCCC4)nn3)cc2c1NC1CCC1 [Example 954] | 520 |
| N#Cc1cnc2c(Cl)cc(NCc3cn(CCN4CCCCCC4)nn3)cc2c1NC1CCC1 [Example 955] | 440 |
| CN(C)CCn1cc(CNc2cc(Cl)c3ncc(C#N)c(NC4CCC4)c3c2)nn1 [Example 956] | 730 |
| CC(C)(C)OC(=O)N1CCN(CCn2cc(CNc3cc(Cl)c4ncc(C#N)c(Nc5ccc(F)c(Cl)c5)c4c3)nn2)CC1 [Example 957] | > 3000 |
| N#Cc1cnc2c(Cl)cc(NCc3cn(CCN4CCNCC4)nn3)cc2c1Nc1ccc(F)c(Cl)c1 [Example 958] | 310 |
| CC(=O)N1CCN(CCn2cc(CNc3cc(Cl)c4ncc(C#N)c(Nc5ccc(F)c(Cl)c5)c4c3)nn2)CC1 [Example 959] | 92 |
| CC(C)(C)CC(=O)N1CCN(CCn2cc(CNc3cc(Cl)c4ncc(C#N)c(Nc5ccc(F)c(Cl)c5)c4c3)nn2)CC1 [Example 960] | 130 |
| CN(C)C(=O)N1CCN(CCn2cc(CNc3cc(Cl)c4ncc(C#N)c(Nc5ccc(F)c(Cl)c5)c4c3)nn2)CC1 [Example 961] | 31 |

| Compound | IC50 [nM] |
| --- | --- |
| CCNC(=O)N1CCN(CCn2cc(CNc3cc(Cl)c4ncc(C#N)c(Nc5ccc(F)c(Cl)c5)c4c3)nn2)CC1 [Example 962] | 23 |
| CN1CCN(CCn2cc(CNc3cc(Cl)c4ncc(C#N)c(Nc5ccc(F)c(Cl)c5)c4c3)nn2)CC1 [Example 963] | 650 |
| CCN1CCN(CCn2cc(CNc3cc(Cl)c4ncc(C#N)c(Nc5ccc(F)c(Cl)c5)c4c3)nn2)CC1 [Example 964] | 260 |
| CC(C)N1CCN(CCn2cc(CNc3cc(Cl)c4ncc(C#N)c(Nc5ccc(F)c(Cl)c5)c4c3)nn2)CC1 [Example 965] | 430 |
| N#Cc1cnc2c(Cl)cc(NCc3cn(CCN4CCN(CC5CC5)CC4)nn3)cc2c1Nc1ccc(F)c(Cl)c1 [Example 966] | 150 |
| CN1CCCC1CCn1cc(CNc2ccc3ncc(C#N)c(NC4CCCCC4)c3c2)nn1 (stereo not shown) [Example 967] | 460 |
| CC(C)(C)OC(=O)N1CCC(n2cc(CNc3ccc4ncc(C#N)c(NC5CCCCC5)c4c3)nn2)CC1 [Example 968] | 670 |
| CN(C)CCn1cc(CNc2ccc3ncc(C#N)c(NC4CCCCC4)c3c2)nn1 [Example 969] | 380 |
| N#Cc1cnc2ccc(NCc3cn(CCN4CCCCCC4)nn3)cc2c1NC1CCCCC1 [Example 970] | 510 |
| CN1CCCC1CCn1cc(CNc2cc(Cl)c3ncc(C#N)c(NC4CCC5(CCCCC5)CC4)c3c2)nn1 (stereo not shown) [Example 971] | > 3000 |
| CN1CCCC1CCn1cc(CNc2cc(Cl)c3ncc(C#N)c(NC4CCCC5(CCCC5)C4)c3c2)nn1 (stereo not shown) [Example 972] | > 3000 |
| CC(C)(C)OC(=O)N1CCC(n2cc(CNc3cc(Cl)c4ncc(C#N)c(NC5CCC6(CCCCC6)CC5)c4c3)nn2)CC1 [Example 973] | > 3000 |
| CC(C)(C)OC(=O)N1CCC(n2cc(CNc3cc(Cl)c4ncc(C#N)c(NC5CCCC6(CCCC6)C5)c4c3)nn2)CC1 (stereo not shown) [Example 974] | > 3000 |
| N#Cc1cnc2c(Cl)cc(NCc3cn(CCN4CCCCCC4)nn3)cc2c1NC1CCC2(CCCCC2)CC1 [Example 975] | > 3000 |
| N#Cc1cnc2c(Cl)cc(NCc3cn(CCN4CCCCCC4)nn3)cc2c1NC1CCCC2(CCCC2)C1 (stereo not shown) [Example 976] | > 3000 |
| N#Cc1cnc2ccc(NCc3cn(C4CCNCC4)nn3)cc2c1NC1CCCCC1 [Example 977] | 130 |
| N#Cc1cnc2c(Cl)cc(NCc3cn(C4CCNCC4)nn3)cc2c1NC1CCC2(CCCCC2)CC1 [Example 978] | > 3000 |
| N#Cc1cnc2c(Cl)cc(NCc3cn(C4CCNCC4)nn3)cc2c1NC1CCCC2(CCCC2)C1 (stereo not shown) [Example 979] | 970 |
| COC(=O)N1CCC(n2cc(CNc3cc(Cl)c4ncc(C#N)c(Nc5ccc(F)c(Cl)c5)c4c3)nn2)CC1 [Example 980] | 24 |
| COC(=O)N1CCC(n2cc(CN(C(=O)OC)c3cc(Cl)c4ncc(C#N)c(Nc5ccc(F)c(Cl)c5)c4c3)nn2)CC1 [Example 981] | 610 |
| N#Cc1cnc2c(Cl)cc(NCc3cn(C4CCN(C(=O)OCCF)CC4)nn3)cc2c1Nc1ccc(F)c(Cl)c1 [Example 982] | 31 |
| N#Cc1cnc2c(Cl)cc(N(Cc3cn(C4CCN(C(=O)OCCF)CC4)nn3)C(=O)OCCF)cc2c1Nc1ccc(F)c(Cl)c1 [Example 983] | > 3000 |
| CN(C)CCn1cc(CNc2cc(Cl)c3ncc(C#N)c(NCC(F)(F)F)c3c2)nn1 [Example 984] | 1090 |
| N#Cc1cnc2c(Cl)cc(NCc3cn(CCN4CCCCC4)nn3)cc2c1NCC(F)(F)F [Example 985] | 1410 |

| Compound | IC50 [nM] |
| --- | --- |
| N#Cc1cnc2c(Cl)cc(NCc3cn(C4CCNCC4)nn3)cc2c1NC1CCC1 [Example 986] | 350 |
| N#Cc1cnc2c(Cl)cc(NCc3cn(C4CCNCC4)nn3)cc2c1NC1CCOCC1 [Example 987] | 1100 |
| N#Cc1cnc2c(Cl)cc(NCc3cn(CCN4CCCCCC4)nn3)cc2c1Nc1ccc(Oc2ccccc2)cc1 [Example 988] | > 3000 |
| CC(C)(C)OC(=O)N1CCC(n2cc(CNc3cc(Cl)c4ncc(C#N)c(Nc5ccc(Oc6ccccc6)cc5)c4c3)nn2)CC1 [Example 989] | 400 |
| CN1CCCC1CCn1cc(CNc2cc(Cl)c3ncc(C#N)c(Nc4ccc(Oc5ccccc5)cc4)c3c2)nn1 (stereo not shown) [Example 990] | 830 |
| N#Cc1cnc2c(Cl)cc(NCc3cn(C4CCN(C[C@@H](O)[C@H](O)CO)CC4)nn3)cc2c1Nc1ccc(F)c(Cl)c1 [Example 991] | 8.2 |
| N#Cc1cnc2c(Cl)cc(NCc3cn(C4CCN(CCO)CC4)nn3)cc2c1Nc1ccc(F)c(Cl)c1 [Example 992] | 2 |
| N#Cc1cnc2c(Cl)cc(NCc3cn(CC(O)c4ccccn4)nn3)cc2c1Nc1ccc(F)c(Cl)c1 (stereo not shown) [Example 993] | 48 |
| N#Cc1cnc2c(Cl)cc(NCc3cn(C4CCN(CC(O)CO)CC4)nn3)cc2c1Nc1ccc(F)c(Cl)c1 (stereo not shown) [Example 994] | 6.8 |
| CC#CCn1cc(CNc2cc(Cl)c3ncc(C#N)c(Nc4ccc(F)c(Cl)c4)c3c2)nn1 [Example 995] | 240 |
| Cc1cc(CNc2cc(Cl)c3ncc(C#N)c(Nc4ccc(F)c(Cl)c4)c3c2)no1 [Example 996] | > 3000 |
| N#Cc1cnc2c(Cl)cc(NCc3cn(C4CC5CCC(C4)N5)nn3)cc2c1Nc1ccc(F)c(Cl)c1 (stereo not shown) [Example 997] | 11 |
| N#CCN1CCC(n2cc(CNc3cc(Cl)c4ncc(C#N)c(Nc5ccc(F)c(Cl)c5)c4c3)nn2)CC1 [Example 998] | 22 |
| CC(C)N1CCC(n2cc(CNc3cc(Cl)c4ncc(C#N)c(NC5CCC5)c4c3)nn2)CC1 [Example 999] | 130 |
| CC(C)N1CCC(n2cc(CNc3cc(Cl)c4ncc(C#N)c(NC5CCOCC5)c4c3)nn2)CC1 [Example 1000] | 480 |
| N#Cc1cnc2c(Cl)cc(NCc3cn(CC(O)c4ccncc4)nn3)cc2c1Nc1ccc(F)c(Cl)c1 (stereo not shown) [Example 1001] | 19 |
| N#Cc1cnc2c(Cl)cc(NCc3cccs3)cc2c1Nc1ccc(F)c(Cl)c1 [Example 1002] | > 3000 |
| N#Cc1cnc2c(Cl)cc(NCc3cn(C4CCN(C5CC5)CC4)nn3)cc2c1Nc1ccc(F)c(Cl)c1 [Example 1003] | 17 |
| N#Cc1cnc2c(Cl)cc(NCc3cc(Br)cs3)cc2c1Nc1ccc(F)c(Cl)c1 [Example 1004] | > 3000 |
| CCN1C2CCC1CC(n1cc(CNc3cc(Cl)c4ncc(C#N)c(Nc5ccc(F)c(Cl)c5)c4c3)nn1)C2 (stereo not shown) [Example 1005] | 41 |
| CC(C)(C)OC(=O)N1CCCC(n2cc(CNc3cc(Cl)c4ncc(C#N)c(Nc5ccc(F)c(Cl)c5)c4c3)nn2)CC1 (stereo not shown) [Example 1006] | 240 |
| N#Cc1cnc2c(Cl)cc(NCc3cn(C4CCCNCC4)nn3)cc2c1Nc1ccc(F)c(Cl)c1 (stereo not shown) [Example 1007] | 16 |
